According to patent US7416840B2, “Replication of hepatitis C virus in non-hepatic epithelial and mouse hepatic cells” (priority 2002, dated 2008):
Entries after “also recorded” stand apart in the source; their conditions may differ. Where two headings read alike, the source gives them in different places.

Legend:
[1] = test system: IFN-α response against the HCV replicon; format: cell-based, human; conditions: for viral RNA levels versus cells treated with IFN-α alone: 5 μM lactacystin or 1 μM epoxomicin 1 h before IFN-α for 6 h, both time points; for IFN response against HCV when inhibitor is added after induction: IFN-α for 10 h, then inhibitor for 12 h; for reduction of HCV RNA levels by IFN-α in the presence of proteasome inhibitor: inhibitor 1 h before IFN-α 100 IU/ml for 6 h, then 12 h
HCV subgenomic replicons [2] = format: cell-based
HCV subgenomic replicons [3] = format: cell-based; remark: listed apart in the source
Mx-1 gene = format: cell-based, human; conditions: GS4.1 cells, with IFN-α
KUNCD20 cells = test: Cell death in IFN-α-treated KUNCD20 cells, light microscopy or annexin V staining; format: cell-based, Homo sapiens (human)
Text: To address this problem, the IFN response against HCV in SL1 cells was compared with that against the flavivirus Kunjin virus in HeLa cells. For this purpose a pool of HeLa cells, KUNCD20, expressing Kunjin virus subgenomic replicons lacking the structural genes, similar to the HCV subgenomic replicons was established (Khromykh, A. A., and E. G. Westaway. 1997. J. Virol. 71:1497-1505). The Kunjin virus RNA levels in these cells were approximately fivefold higher than those observed with HCV in SL1 cells. […] Importantly, cell death in IFN-α-treated KUNCD20 cells was not detected either by light microscopy or annexin V staining (results not shown).

HCV = HCV genotypes 2 and 3; cited from earlier work
SL1 cells = format: cell-based, Homo sapiens (human)
Kunjin virus replicons = format: cell-based; conditions: KUNCD20 cells, 0.01 to 160 IU of IFN-α/ml, 72 h
eIF-2α = format: cell-based, human; conditions: Huh7, GS4.1, HeLa, SL1 cells; 100 IU of IFN-α/ml 12 h; poly(I:C) transfection 3 h
IFN-β gene = format: cell-based, human; conditions: for expression of IFN-β: IFN-α alone

Nc1ncc2[nH]cnc2n1 [2-AP, 2-aminopurine]
inhibition of the IFN-α response against HCV replicon ([1]; GS4.1 (Huh7) cells): did not block the IFN response against HCV; also recorded: no measurable effect on the IFN response against the HCV replicon | apoptosis (HeLa cells; HeLa cells, treatment for more than 12 h): induced apoptosis

C[C@@]1(O)[C@H](O)[C@@H](CO)O[C@H]1n1cnc2c(N)ncnc21 [2CMA, 2′-C-methyladenosine]
viral RNA (vRNA), anti-HCV activity (HCV subgenomic replicons [2]; GS4.1 (Huh7) cells, 10 μM, harvested at 6, 12, 24, 48, 72 hours): effectively inhibits HCV | viral RNA (vRNA), anti-HCV activity (HCV subgenomic replicons [3]; SL1 (HeLa) cells, 10 μM, harvested at 6, 12, 24, 48, 72 hours): effectively inhibits HCV

Nc1nc(=O)n([C@@H]2O[C@H](CO)[C@@H](O)[C@H]2O)cc1O [5-OH-cytidine]
HCV RNA band intensity, antiviral activity (HCV subgenomic replicons [2]; GS4.1 (Huh7) cells, indicated amounts, 72 hours): effectively inhibits HCV replication | HCV RNA band intensity, antiviral activity (HCV subgenomic replicons [3]; SL1 (HeLa) cells, indicated amounts, 72 hours): effectively inhibits HCV replication

C[C@@H]1C[C@@H]([C@H](O)CC2CC(=O)NC(=O)C2)C(=O)[C@@H](C)C1 [Cycloheximide]
inhibition of the IFN-α response against HCV replicon ([1]; GS4.1 (Huh7) cells): decline of viral RNA levels was reduced

CC[C@H](C)[C@H](NC(=O)[C@H]([C@@H](C)CC)N(C)C(C)=O)C(=O)N[C@H](C(=O)N[C@@H](CC(C)C)C(=O)[C@@]1(C)CO1)[C@@H](C)O [Epoxomicin]
induction of IFN-induced Mx-1 (Mx-A) mRNA (Mx-1 gene): did not inhibit induction of Mx-A | viral RNA levels versus cells treated with IFN-α alone ([1]; GS4.1 cells): significantly higher | IFN response against HCV when inhibitor is added after induction ([1]; GS4.1 cells): the IFN response against HCV remained effective | reduction of HCV RNA levels by IFN-α in the presence of proteasome inhibitor ([1]; GS4.1 cells): 30%

O=c1c(-c2ccc(O)cc2)coc2cc(O)cc(O)c12 [Genistein, genistein]
induction of IFN-induced Mx-1 (Mx-A) mRNA (Mx-1 gene): suppressed the induction of the IFN-induced Mx-1 gene | inhibition of the IFN-α response against HCV replicon ([1]; GS4.1 (Huh7) cells): antagonized the IFN-α response against the HCV replicon | inhibition of the IFN response against HCV at increased drug concentration ([1]; GS4.1 cells, concentration raised from 100 to 300 μM): complete inhibition of the IFN response against HCV

CC(=O)N[C@@H](CSC(=O)[C@]1([C@@H](O)C(C)C)NC(=O)[C@H](C)[C@@H]1O)C(=O)O [Lactacystin, lactacystin]
induction of IFN-induced Mx-1 (Mx-A) mRNA (Mx-1 gene): did not inhibit induction of Mx-A | viral RNA levels versus cells treated with IFN-α alone ([1]; GS4.1 cells): significantly higher | IFN response against HCV when inhibitor is added after induction ([1]; GS4.1 cells): the IFN response against HCV remained effective | reduction of HCV RNA levels by IFN-α in the presence of proteasome inhibitor ([1]; GS4.1 cells): 30% | HCV RNA levels, drug alone (HCV subgenomic replicons [2]; GS4.1 cells, higher doses, without IFN-α): slight reduction of HCV RNA levels

C[S+]([O-])c1ccc(-c2nc(-c3ccncc3)c(-c3ccc(F)cc3)[nH]2)cc1 (stereo not shown) [SB 203580]
inhibition of the IFN-α response against HCV replicon ([1]; GS4.1 (Huh7) cells): did not inhibit the IFN response at detectable levels

O=C([O-])c1ccccc1O.[Na+] [Sodium salicylate, sodium salicylate]
inhibition of the IFN-α response against HCV replicon [1]: did not inhibit the IFN response at detectable levels

IFN-α
cell death (KUNCD20 cells): not detected | response to IFN-α therapy (HCV): ≤ 80% | cell death (SL1 cells; SL1 and other HeLa derived cell lines, more than 30 IU of IFN-α/ml, between 6 and 20 h post treatment): induced cell death in a significant fraction of cells | fraction of apoptotic cells (annexin V-FITC positive) (SL1 cells; SL1 cells, 100 IU of IFN-α/ml, 24 h, flow cytometry): more than 30% | Kunjin virus replicon RNA, inhibition of viral replication (Kunjin virus replicons): only slightly inhibited viral replication | apoptosis after IFN-α treatment (HeLa cells; normal HeLa cells): did not undergo apoptosis | drop of HCV RNA levels (HCV subgenomic replicons [2]; GS4.1 cells, IFN-α 100 IU/ml for 6 h, within 18 h): 70% | eIF-2α-P levels (eIF-2α): did not induce eIF-2α-P levels | expression of IFN-β (IFN-β gene; HeLa cells): not in HeLa cells | expression of IFN-β (IFN-β gene; SL1 cells): could be induced | IC50 of IFN-α (reduction of virus replication) (HCV subgenomic replicons [3]; HeLa cell lines such as SL1, 72 h): ~0.1 IU/ml | fold lower IC50 in HeLa cell lines than in Huh7-derived cell lines (HCV subgenomic replicons [3]; HeLa vs Huh7-derived cell lines): approximately 10 fold

ZVAD-fluoromethyl ketone [ZVAD-FMK]
prevention of IFN-α-induced cell death (apoptosis) (SL1 cells; SL1 cells, 100 IU of IFN-α/ml with 20 μM ZVAD-FMK): could be prevented

poly(I:C)
eIF-2α-P levels (eIF-2α): augmented eIF-2α-P levels | IFN-β transcription (IFN-β gene; HeLa and SL1 cells, poly(I:C) alone): induced | induction of IFN-β mRNA (IFN-β gene; Huh7, GS4.1 and other Huh7-derived cells, primed with IFN-α then transfected with poly(I:C)): only a weak induction of IFN-β was observed
